# According to patent US20190098891A1, “Compositions and Methods for Biopreservation” (Augusta University Research Institute, Inc., priority 2017, published 2019):
# System: mouse M II oocytes
# Experiment: Post-rehydration survival of mouse M II oocytes after fast or slow desiccation
# Assay type: cell-based
# Source text: A phosphate-buffered saline (PBS) containing 0.4% bovine serum albumin (BSA) was used as a starting desiccation medium based on its simple composition that was preferable to not complicate the experimental outcome due to components of a complex desiccation medium. Further, the objective of these experiments was to test the effect of the desiccation duration without bringing specimen into a glassy state.
# Slow and fast desiccation are can be achieved by adjusting several variables (e.g., temperature and flow rate of dry nitrogen gas, temperature of stage warmer, droplet size, etc.). Slow and fast desiccation of M II oocytes were achieved by changing the flow rate of dry nitrogen gas using a flowmeter (Gilmont Instruments) while performing the experiments at ambient temperature.
# The fast protocol required approximately 9 minutes to desiccate a sample to a residual moisture content of 5% while the same residual moisture content was obtained in ca. 20 minutes in the case of slow desiccation. […]
# The residual moisture content (% RM) of samples was determined gravimetrically using the following formula: […]
structure (smiles),measurement,value
OC[C@H]1O[C@H](O[C@H]2O[C@H](CO)[C@@H](O)[C@H](O)[C@H]2O)[C@H](O)[C@@H](O)[C@@H]1O [trehalose],desiccation tolerance,improves the desiccation tolerance
